Results taken from patent publication US20050074408A1, “Keto cannabinoids with therapeutic indications” (University of Connecticut, priority 2002, published 2005).
Like-named read-outs stand apart in the source and are kept apart here.

Tests used:
CB1 cannabinoid receptor = target: T1, CB1 cannabinoid receptor (Rattus norvegicus, UniProt P20272); test: CB1 receptor binding assay ([3H] CP-55,940 displacement, rat forebrain membranes); settings: 0.8 nM [3H] CP-55,940
T1 construct: membranes were prepared from rat forebrain membranes; from tissue; host or cells: rat forebrain
T1 sequence (P20272 whole entry): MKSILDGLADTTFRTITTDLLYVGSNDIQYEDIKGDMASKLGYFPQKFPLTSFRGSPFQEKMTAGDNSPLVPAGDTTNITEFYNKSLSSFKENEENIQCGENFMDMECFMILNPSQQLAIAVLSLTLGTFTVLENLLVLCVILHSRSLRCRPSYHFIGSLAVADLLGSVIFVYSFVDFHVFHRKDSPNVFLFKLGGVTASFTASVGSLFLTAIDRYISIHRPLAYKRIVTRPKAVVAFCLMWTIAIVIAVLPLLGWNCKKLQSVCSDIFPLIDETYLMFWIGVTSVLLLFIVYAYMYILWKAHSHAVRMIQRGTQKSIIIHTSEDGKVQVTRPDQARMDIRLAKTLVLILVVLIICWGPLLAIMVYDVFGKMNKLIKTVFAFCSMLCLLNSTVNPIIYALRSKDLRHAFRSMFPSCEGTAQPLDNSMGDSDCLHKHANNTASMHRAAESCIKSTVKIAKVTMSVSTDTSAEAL
Experimental: Some of the inventive compounds were tested for CB2 receptor binding affinity and for CB1 receptor affinity (to determine selectivity for the CB2 receptor). As used herein, “binding affinity” is represented by the Ki value which is the inhibition constant correlated with the concentration of an analog required to occupy the 50% of the total number (Bmax) of the receptors. The lower the Ki value the higher the binding affinity. […] For the CB1 receptor binding studies, membranes were prepared from rat forebrain membranes according to the procedure of P. R. Dodd et al, A Rapid Method for Preparing Synaptosomes: Comparison with Alternative Procedures, Brain Res., 107-118 (1981). The binding of the novel analogues to the CB1 cannabinoid receptor was assessed as described in W. A. Devane et al, Determination and Characterization of a Cannabinoid Receptor in a Rat Brain, Mol. Pharmacol., 34, 605-613 (1988) and A. Charalambous et al, 5′-azido Δ^8−THC: A Novel Photoaffinity Label for the Cannabinoid Receptor, J. Med. Chem., 35, 3076-3079 (1992) with the following changes. The above articles are incorporated by reference herein.
(§1) Membranes, previously frozen at −80° C., were thawed on ice. To the stirred suspension was added three volumes of TME (25 mM Tris-HCl buffer, 5 mM MgCl2 and 1 mM EDTA) at a pH 7.4. The suspension was incubated at 4° C. for 30 min. At the end of the incubation, the membranes were pelleted and washed three times with TME.
The treated membranes were subsequently used in the binding assay described below. Approximately 30 μg of membranes were incubated in silanized 96-well microtiter plate with TME containing 0.1% essentially fatty acid-free bovine serum albumin (BSA), 0.8 nM [^3H] CP-55,940, and various concentrations of test materials in a final volume of 200 μL. The assays were incubated for 1 hour at 30° C. and then immediately filtered using Packard Filtermate 196 harvester and Whatman GF/C filterplates and washed with wash buffer (TME) containing 0.5% BSA. Radioactivity was detected using MicroScint 20 scintillation cocktail added directly to the dried filterplates, and the filterplates were counted using a Packard Instruments Top-Count. Nonspecific binding was assessed using 100 nM CP-55,940. Data collected from three independent experiments performed with duplicate determinations was normalized between 100% and 0% specific binding for [^3H] CP-55,940, determined using buffer and 100 nM CP-55,940. The normalized data was analyzed using a 4-parameter nonlinear logistic equation to yield IC50 values. Data from at least two independent experiments performed in duplicate was used to calculate IC50 values which were converted to Ki values using the assumptions of Cheng et al, Relationship Between the Inhibition Constant (Ki) and the concentration of Inhibitor which causes 50% Inhibition (IC50) of an Enzymatic Reaction, Biochem. Pharmacol., 22, 3099-3102, (1973), which is incorporated by reference herein.

CB2 receptor = target: T2, CB2 receptor (Mus musculus, UniProt P47936); test: CB2 receptor binding assay ([3H] CP-55,940 displacement, mouse spleen membranes)
T2 construct: membranes were prepared from frozen mouse spleen; from tissue; host or cells: mouse spleen
T2 sequence (P47936 whole entry): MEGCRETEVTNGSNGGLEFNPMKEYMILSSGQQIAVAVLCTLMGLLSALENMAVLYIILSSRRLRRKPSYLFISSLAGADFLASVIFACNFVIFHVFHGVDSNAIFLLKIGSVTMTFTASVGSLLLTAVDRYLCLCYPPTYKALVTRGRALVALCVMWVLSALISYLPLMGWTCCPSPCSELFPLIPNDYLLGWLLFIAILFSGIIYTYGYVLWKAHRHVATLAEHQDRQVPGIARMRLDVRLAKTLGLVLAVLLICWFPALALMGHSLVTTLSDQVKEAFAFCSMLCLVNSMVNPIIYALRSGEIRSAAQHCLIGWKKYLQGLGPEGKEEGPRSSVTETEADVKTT
Experimental: as §1
The treated membranes were subsequently used in the binding assay described below. Approximately 30 μg of membranes were incubated in silanized 96-well microtiter plate with TME containing 0.1% essentially fatty acid-free bovine serum albumin (BSA), 0.8 nM [^3H] […] Radioactivity was detected using MicroScint 20 scintillation cocktail added directly to the dried filterplates, and the filterplates were counted using a Packard Instruments Top-Count. […] Data collected from three independent experiments performed with duplicate determinations was normalized between 100% and 0% specific binding for [^3H] […] The normalized data was analyzed using a 4-parameter nonlinear logistic equation to yield IC50 values.
Silanized centrifuge tubes were used throughout to minimize receptor loss due to adsorption. The CB2 binding assay was conducted in the same manner as for the CB1 binding assay. The binding affinities (Ki) were also expressed in nanomoles (nM).

[1] = Fluorescence assay protocol (absorption, excitation and emission scans in MeOH); type: physicochemical
Experimental: The fluorescent properties of some of the inventive compounds were examined using the following fluorescence assay protocol. All samples were processed in the same manner and diluted in JT BAKER PHOTREX Grade MeOH. Cuvettes and flasks were cleaned and rinsed with distilled water then rinsed twice with MeOH. Samples were kept in the freezer prior to testing. NSG Precision Quartz Cuvettes were used for absorption and spectral scans. Samples were diluted with methanol to a final volume of 5 mL. A 100× dilution of the samples in MeOH was performed. Absorption spectra were run using a Beckman DU-40 Spectrophotometer. Guided by absorption spectra, excitation and emission scans were run using an ISA Fluoromax-2 Fluorometer.
500 μL of MeOH was added into sample vial containing about 1 mg of testing compound, and aspirated with pipette to mix. 500 μL sample aliquot was then placed into 5 mL volumetric flask and brought up to volume with MeOH, and 5 mL was used as stock. Serial dilutions in 50 mL volumetric flasks were performed until final concentration of 100× reached. Dilution protocol was repeated for each sample. After dilution, 2.5 mL of sample was placed into a 3 mL Quartz cuvette and the cuvette was placed in ISA Fluoromax-2 Fluorometer. Absorption scan was run in Beckman DU-40 Spectrophotometer. Excitation and emission scans were run and spectral data were collected.

[2] = mouse spleen membranes, [3H] CP-55,940, read-out: CB2 Ki

| Compound | Ki (CB1 cannabinoid receptor) [nM] | Ki (CB2 receptor; [2]) [nM] | Absorbance Peak [1] [nm] | Fluorescence Emission Peak [1] [nm] | Fluorescence Excitation Peak [1] [nm] | Mol Extinction [1] [mol⁻¹ cm⁻¹ L⁻¹] | Stoke's Shift [1] [nm] | Ki (CB2 receptor) [nM] |
| --- | --- | --- | --- | --- | --- | --- | --- | --- |
| CCCCCCc1cc2c3c(c(=O)oc2cc1O)CCC(C)C3 (centres unmarked) [Compound 1] | 8610 | 5630 |  |  |  |  |  |  |
| CCCCCC(C)Oc1cc(O)c2c3c(c(=O)oc2c1)CCC(C)C3 (centres unmarked) [Compound 2] | 150 | 25 | 320 | 423 | 326 | 13900 | 97 |  |
| CCCCCCC(C)Oc1cc(O)c2c3c(c(=O)oc2c1)CCC(C)C3 (centres unmarked) [Compound 3] | 30 | 6 |  |  |  |  |  |  |
| CCCCCCN(C)c1cc(O)c2c3c(c(=O)oc2c1)CCC(C)C3 (centres unmarked) [Compound 5] | 2000 | 1660 | 364 | 460 | 368 | 18600 | 92 |  |
| CCCCCCCN(C)c1cc(O)c2c3c(c(=O)oc2c1)CCC(C)C3 (centres unmarked) [Compound 6] | 122 | 128 | 364 | 460 | 367 | 18000 | 93 |  |
| CCCCCCN(C)c1cc(O)cc2oc(=O)c3c(c12)CC(C)CC3 (centres unmarked) [Compound 7] | 160 | 288 |  |  |  |  |  |  |
| CCCCCCCN(C)c1cc(O)cc2oc(=O)c3c(c12)CC(C)CC3 (centres unmarked) [Compound 8] | 2580 |  |  |  |  |  |  | 824 |
| CCCCCCCN(C)c1cc2oc(=O)c3ccc(C)cc3c2c(O)c1Br [Compound 9] | 50 | 3 |  |  |  |  |  |  |
| CCCCCCCN(C)c1cc(O)c2c(oc(=O)c3ccc(C)cc32)c1Br [Compound 10] | 9 | 0.7 |  |  |  |  |  |  |
| CCCCCCCN(C)c1cc(O)c2c(c1)oc(=O)c1ccc(C(F)(F)F)cc12 [Compound 11] | 6680 | 1680 |  |  |  |  |  |  |
| CCCCCCCN(C)c1cc(OC)c2c(c1)oc(=O)c1ccc(C(F)(F)F)cc12 [Compound 12] | 6360 | 1480 |  |  |  |  |  |  |
| CCCCCCCN(C)c1cc(O)c2c(c1)oc(=O)c1ccc(C)cc12 [Compound 13] | 140 | 16 | 316 | 519 | 319 | 22700 | 200 |  |
| CCCCCCCN(C)c1cc(OC)c2c(c1)oc(=O)c1ccc(C)cc12 [Compound 14] | 1260 | 90 | 405 | 465 | 405 | 11400 | 60 |  |
| CCCCCCCN(C)c1cc(O)c2c(c1)oc(=O)c1ccc(O)cc12 [Compound 15] | 990 | 23 | 318 | 502 | 320 | 23400 | 182 |  |
| CCCCCCCN(C)c1cc(O)c2c(c1)oc(=O)c1ccc(OC)cc12 [Compound 16] | 1300 |  | 317 | 498 | 321 | 21800 | 177 | 148 |
| CCCCCCC(C)Oc1cc(O)c2c3c(c(=O)oc2c1)CCC(=O)C3 (centres unmarked) [Compound 17] | 304 |  |  |  |  |  |  | 0.4 |
| CCCCCCC(C)Oc1cc(OC)c2c3c(c(=O)oc2c1)CCC(=O)C3 (centres unmarked) [Compound 18] | 8430 | 355 |  |  |  |  |  |  |
| CCCCCCCC(C)(C)c1cc(OC)c2c3c(c(=O)oc2c1)CCC(=O)C3 [Compound 19] | 40 | 1 |  |  |  |  |  |  |
| CCCCCCC(C)Oc1cc(OC(=O)CCCCN2CCOCC2)c2c3c(c(=O)oc2c1)CCC(=O)C3 (centres unmarked) [Compound 20] | 6 | 0.6 |  |  |  |  |  |  |
| CCCCCCCC(C)(C)c1cc(OC)c2c3c(c(=O)oc2c1)CCC(C)C3 (centres unmarked) [Compound 32] |  |  | 327 | 390 | 330 |  | 60 |  |
| CCCCCCC(C)(C)c1cc(O)c2c(c1)oc(=O)c1ccccc12 [Compound 47] | 4790 | 6.6 |  |  |  |  |  |  |
| CCCCCCC(C)(C)c1cc(O)c2c(c1)oc(=O)c1cc(O)c(O)cc12 [Compound 48] | 1950 | 101 |  |  |  |  |  |  |
| CCCCCCC(C)(C)c1cc(OC)c2c(c1)oc(=O)c1ccncc12 [Compound 49] | 3760 | 35.4 |  |  |  |  |  |  |
